System: multiple myeloma tumor cell line RPMI 8226
Test: Promega Cell Titer-Glo antiproliferative assay, single agent and combination
Format: cell-based, human
Conditions: unit from figure X axis
Method: The antiproliferative activity of tris(8-quinolinolato)gallium(III) and lenalidomide against the human multiple myeloma tumor cell line RPMI 8226 was determined with Promega's Cell Titer-Glo® assay. The human tumor cells were placed in a 96-well microculture plate at the appropriate density for 96 hours of total growth time. After 24 hours of incubation in a humidified incubator at 37° C. with 5% CO2 and 95% air, serially diluted test agents in growth medium were added to each well. After 96 total hours of culture in a CO2 incubator, the plates were processed with Cell Titer-Glo (Promega #G7571) according to manufacturer's instructions. Luminescence was detected using a Tecan GENios microplate reader. Percent inhibition of cell growth was calculated relative to untreated control wells. All tests were performed in duplicate at each concentration level. The IC50 value for the test agents was estimated using Prism 3.03 by curve-fitting the data using the following four parameter-logistic equation: […]
The same Promega Cell Titer-Glo® assay described above was used in the combination study. […] After 96 hours, the cell number was determined with the Cell Titer Glo® assay as described above. […]

[Ga+3].[O-]c1cccc2cccnc12.[O-]c1cccc2cccnc12.[O-]c1cccc2cccnc12 [tris(8-quinolinolato)gallium(III)]
IC50 (RPMI-8226, tris(8-quinolinolato)gallium(III) alone): ~0.9 µM | IC50 (RPMI-8226, with lenalidomide at a constant amount): 0.5 µM
